Here are results for one compound from patent publication EP4162935B1 (UNIVERSIDADE NOVA DE LISBOA, priority 2021, dated 2023).

Molecules are shown by their SMILES.

The conditions of data set [1]: oral administration of a single dose of 300 mg/kg and 2000 mg/kg, 14 days of observation; cited from earlier work.
Data set [2] has as its system SARS-CoV-2. The data set is described as follows: SARS-CoV-2 cell infection assay in Vero E6 cells, intracellular ATP levels (CellTiter-Glo) and cytopathic effect.

For the compound `COc1ccc(-c2cc(=O)c3c(O)cc(O)cc3o2)cc1O` [diosmetin, 5,7-Dihydroxy-2-(3-hydroxy-4-methoxyphenyl)-4H-benzopyran-4-one], in data set [1], the “signs of toxicity or mortality” value is reported as “did not demonstrate any signs of toxicity or mortality”. For the same compound, the “duration of antiviral effect” value in data set [2] (45 µM) is 72 h. The compound also yielded an optimal concentration in data set [2] (same as in µM, Vero E6 cells, 30 pfu SARS-CoV-2, 72h) of 13.5 µg/mL.
